Measurements from patent publication US20210023234A1, “ECTONUCLEOTIDE PYROPHOSPHATE-PHOSPHODIESTERASE (ENPP) CONJUGATES AND USES THEREOF” (AbbVie Inc., priority 2018, published 2021).

How the values were obtained:
[1] = molecular target: T1, human ENPP-1 enzyme (Homo sapiens, UniProt P22413); assay: ENPP1 Enzyme Assay with TMP-pNP Substrate (absorbance at 405 nm); format: biochemical; settings: read-out: TMP-pNP: % inhibition at 10 uM; 10 uM compound; 200 μM TMP-pNP substrate; 15 ng/well enzyme
T1 construct: purchased R&D Systems
T1 sequence (P22413 1-925): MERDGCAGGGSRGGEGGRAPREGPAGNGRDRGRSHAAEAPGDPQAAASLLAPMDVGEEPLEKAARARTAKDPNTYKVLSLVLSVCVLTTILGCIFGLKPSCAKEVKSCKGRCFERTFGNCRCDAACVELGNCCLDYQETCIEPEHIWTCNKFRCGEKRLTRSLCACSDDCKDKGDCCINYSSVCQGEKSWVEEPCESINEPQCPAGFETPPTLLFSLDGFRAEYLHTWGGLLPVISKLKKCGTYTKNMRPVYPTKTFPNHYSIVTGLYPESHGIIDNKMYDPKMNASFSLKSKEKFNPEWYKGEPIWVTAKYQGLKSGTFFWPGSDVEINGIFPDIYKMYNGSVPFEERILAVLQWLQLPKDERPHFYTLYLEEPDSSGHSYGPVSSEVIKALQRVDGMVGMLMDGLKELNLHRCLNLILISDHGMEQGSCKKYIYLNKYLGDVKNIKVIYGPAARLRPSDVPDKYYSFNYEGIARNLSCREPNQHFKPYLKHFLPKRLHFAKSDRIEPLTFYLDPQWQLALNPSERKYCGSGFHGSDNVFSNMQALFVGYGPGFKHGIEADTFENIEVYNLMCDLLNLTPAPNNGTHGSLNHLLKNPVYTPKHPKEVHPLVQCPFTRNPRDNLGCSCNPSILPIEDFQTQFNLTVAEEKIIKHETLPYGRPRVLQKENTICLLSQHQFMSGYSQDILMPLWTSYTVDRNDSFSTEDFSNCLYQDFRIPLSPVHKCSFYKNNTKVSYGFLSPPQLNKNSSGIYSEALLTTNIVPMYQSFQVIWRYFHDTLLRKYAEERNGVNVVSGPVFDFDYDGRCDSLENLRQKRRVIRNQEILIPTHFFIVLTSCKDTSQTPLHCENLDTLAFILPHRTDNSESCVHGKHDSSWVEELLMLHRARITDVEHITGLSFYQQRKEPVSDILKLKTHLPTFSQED
Description: ENPP1 Enzyme Assay with TMP-pNP Substrate:
ENPP-1 hydrolyzes thymidine 5′monophosphate p-nitrophenyl ester (TMP-pNP) to nucleotide-5′-monophosphate and p-nitrophenol, which is a chromogenic product. The amount of p-nitrophenol product formed is measured using its absorbance at 405 nm, which is directly proportional to enzyme activity. Different concentrations of inhibitors (synthetic molecules #1-7; see Table 1) were pre-incubated with 15 ng/well of human ENPP-1 enzyme (R&D Systems) for 15 minutes at 37° C. The reaction was initiated by adding 200 μM TMP-pNP and incubating for 10 minutes at 37° C. […] The amount of product formed was measured directly ina Tecan® spectrophotometer. Maximal activity control samples (containing enzyme, substrate, and buffer in the absence of ENPP1 inhibitors: MAX) and background control samples (containing enzyme, substrate, and buffer plus a fully inhibitory concentration (3 μM) of the reference ENPP1 Inhibitor, MV-0000002: MIN) are simultaneously evaluated in order to calculate the percent inhibition at each compound concentration as follows: […]
The IC50 values for percent inhibition versus compound concentration were determined by fitting the inhibition curves (percent inhibition versus inhibitor concentration) using a four-parameter variable slope model in GraphPad Prism® software. […]

[2] = molecular target: T1, human ENPP-1 enzyme; assay: ENPP1 Enzyme Assay with cGAMP Substrate (AMP-Glo); format: biochemical; settings: 20 μM 2′3′-cGAMP substrate, 5 ng/well enzyme; for inhibition at 1 µM: 1 uM compound; for inhibition at 10 µM: 10 uM compound
From the text: ENPP1 Enzyme Assay with cGAMP Substrate:
Ectonucleotide pyrophosphatase/phosphodiesterase 1 (ENPP-1) is a transmembrane glycoprotein that hydrolyzes nucleotides and nucleotide derivatives with the formation of nucleoside-5′-monophosphates. ENPP-1 hydrolyzes 2′3′-cGAMP (cGAMP), breaking it down into 5′-AMP and 5′-GMP. The 5′-AMP formed from the reaction is detected using the AMP-Glo® Kit (Promega). The assay kit contains two reagents. The first reagent terminates the enzymatic reaction, removes ATP (using adenylyl cyclase), and converts 5′-AMP produced into ADP (using polyphosphate: AMP phosphotransferase). The second reagent converts ADP to ATP (using adenylate kinase) and generates light from ATP using the luciferin/luciferase reaction. The amount of light measured is proportional to the amount of 5′-AMP produced by ENPP1.
Different concentrations of exemplary ENPP1 inhibitors (synthetic molecules #1-7; see Table 1) were pre-incubated with 5 ng/well of human ENPP-1 enzyme (R&D Systems) for 15 minutes at 37° C. The reaction was initiated by adding 20 μM 2′3′-cGAMP and incubating for 30 minutes at 37° C. The final assay reaction mixture contained a buffer of 50 mM Tris pH 8.0, 250 mM NaCl, 0.5 mM CaCl2, 1 μM ZnCl2 and 1% DMSO. At the end of the incubation, the reaction was stopped by adding 12 μl of AMP-Glo reagent-1 and mixing the reaction uniformly for 5 minutes, followed by incubation at room temperature for one hour. Then 25 μl of AMP Glo reagent-2 was added to the reaction, mixed uniformly with a pipette, and incubated at room temperature for one hour to convert the ADP formed from reagent-1 to ATP and light. The generated light was measured in a Perkin Elmer Victor® instrument. Maximal activity control samples (containing enzyme, substrate, and buffer in the absence of ENPP1 inhibitors: MAX) and background control samples (containing enzyme, substrate, and buffer plus a fully inhibitory concentration (3 μM) of the reference ENPP1 Inhibitor, MV-0000002: MIN) were simultaneously evaluated in order to calculate the percent inhibition at each compound concentration as follows:
% inhibition=(([MAX−MIN]−[COMPOUND−MIN])/[MAX−MIN])*100
The IC50 values for percent inhibition versus compound concentration were determined by fitting the inhibition curves using a four-parameter variable slope model in GraphPad Prism® software. Ki values are derived from the IC50 values using the Cheng-Prusoff equation: […]

Row | inhibition at 10 µM [1] | inhibition at 1 µM [2] | inhibition at 10 µM [2] | Structure (SMILES)
1 | ≥ 75% | ≥ 75% |  | COc1cc2ncc(C(N)=O)c(N3CCC(CCNS(N)(=O)=O)CC3)c2cc1OC [compound 2, 6,7-dimethoxy-4-(4-(2-(sulfamoylamino)ethyl)piperidin-1-yl)quinoline-3-carboxamide]
2 |  |  | ≥ 75% | Cn1ncc2c(N3CCC(CCNS(N)(=O)=O)CC3)ncnc21 [compound 3, N-(2-(1-(1-methyl-1H-pyrazolo[3,4-d]pyrimidin-4-yl)piperidin-4-yl)ethyl)sulfonic amide]
3 | ≥ 75% |  | ≥ 75% | COc1cc2ncnc(N3CCC4(CC3)CN(S(N)(=O)=O)C4)c2cc1OC [compound 5, 7-(6,7-dimethoxyquinazolin-4-yl)-2,7-diazaspiro[3.5]nonane-2-sulfonamide]
4 |  | ≥ 75% |  | COc1cc2ncnc(N3CCc4c(cccc4S(N)(=O)=O)C3)c2cc1OC [compound 6, 2-(6,7-dimethoxyquinazolin-4-yl)-1,2,3,4-tetrahydroisoquinoline-5-sulfonamide]
5 |  |  | ≥ 75% | COc1cc2ncnc(NCCc3cccc(NS(N)(=O)=O)c3)c2cc1OC [compound 7, N-(3-(2-((6,7-dimethoxyquinazolin-4-yl)amino)ethyl)phenyl)sulfonic amide]
